In patent EP4782450A1, “NOVEL SKELETAL DERIVATIVE EFFECTIVE FOR HER2 MUTATION, AND PHARMACEUTICAL COMPOSITION COMPRISING SAME” (Hanmi Pharm. Co., Ltd., priority 2023, dated 2025):
Where two headings read alike, the source gives them in different places.

Columns and labels:
[1] = test system: wild-type EGFR overexpressing Ba/F3 cells; test: Growth inhibition of Ba/F3 cells engineered to overexpress wild-type EGFR (CellTiter-Glo luminescence); assay type: cell-based; settings: concentrations 10000 to 8 nM, read-out: Ba/F3 EGFR^WT GI50 class
Procedure: (§1) Experimental Example: Growth inhibition of Ba/F3 HER2 A775insYVMA and wild-type Ba/F3 cells
(§2) In this Experimental Example, the compounds obtained in Examples 1 to 92 were evaluated for their ability to inhibit growth of cells harboring either the HER2 A775insYVMA mutation or wild-type EGFR. For this purpose, Ba/F3 cells (ATCC, USA) were genetically engineered to overexpress either HER2 A775_G776insYVMA or wild-type EGFR, and the growth of these engineered Ba/F3 cells were monitored in the presence of the compounds described in the Examples to evaluate their effects on growth inhibition.
(§3) Specifically, culture flasks of the engineered Ba/F3 cells suspended in RPMI 1640 medium supplemented with 10% fetal bovine serum (FBS) and 1% penicillin/streptomycin (Gibco BRL, USA) were placed in a cell incubator and incubated at 37°C and 5% CO2 level to allow them to reach a stable logarithmic growth phase. The cells were then harvested by centrifugation to remove the old media and placed into a 96-well plate by dividing them into 100 µL aliquots per well at a dilution of 1×10^5 cells/mL in fresh media. Each of the compounds prepared in the preceding Examples were dissolved in 99.5% (cell culture grade) dimethylsulfoxide (DMSO) to prepare a stock solution of 10 mM concentration, which were serially diluted in the culture medium to final concentrations of 1000, 200, 40, 8, 1.6 and 0.32 nM for HER2 A775insYVMA Ba/F3 cells and concentrations of 10000, 5000, 1000, 200, 40 and 8 nM for wild-type EGFR overexpressing Ba/F3 cells.
(§4) To each aliquot of cells in the 96-well plate, a 50 µL test solution comprising one of the compounds was added to result in each well a 150 µL volume of cells with a compound in a final concentration ranging from 10 µM to 0.32 nM. The Ba/F3 cells treated with the test solution were incubated for 72 hours at 37°C and 5% CO2 level and underwent a 30-minute acclimation by placing the 96-well plate carrying the cells in ambient temperature. Thereafter, to each well was added 50 µL CellTiter-Glo® Luminescent Cell Assay Reagent (CTG, Promega, USA). After allowing 10 minutes to stabilize the signal, luminescence intensity was measured using a microplate reader. The half-maximal growth inhibition concentration (GI50) was calculated from the luminescence readout of the test compounds with the difference between the initial and final cell densities for the well untreated with a compound set at 100% growth. Nonlinear regression analysis based on log[inhibitor] vs. normalized response mode of the Graph Prism software was used for calculating GI50 for each compound, which are summarized in Table 6. The calculated GI50 values are classified in Table 6 into four categories: A for GI50 values less than 100 nM, B for GI50 values more than 100 nM but less than 1,000 nM, C for GI50 values more than 1,000 nM but less than 5,000 nM, and D for GI50 values of more than 5,000 nM.

Ba/F3 HER2 A775insYVMA = test: Growth inhibition of Ba/F3 cells engineered to overexpress HER2 A775_G776insYVMA (CellTiter-Glo luminescence); assay type: cell-based; settings: concentrations 1000 to 0.32 nM, read-out: Ba/F3 HER2^YVMA GI50 class
Procedure: as §1, §2, §3, §4

With `C=CC(=O)N(C)CCN(C)c1ncc2ncnc(Nc3ccc(Oc4ccc5c(c4)ncn5C)c(C)c3)c2n1` [Example 19, N-methyl-N-(2-(methyl(8-((3-methyl-4-((1-methyl-1H-benzo[d]imidazol-5-yl)oxy)phenyl)amino)pyrimido[5,4-d]pyrimidin-2-yl)amino)ethyl)acrylamide] the GI50 ([1]; Mus musculus, BaF3, 72 hours) was greater than 5000 nM and the GI50 (Ba/F3 HER2 A775insYVMA; Mus musculus, BaF3, 72 hours) was 100 to 1000 nM.

For `C/C=C/C(=O)N(C)C/C=C/c1ccc2ncnc(Nc3ccc(Oc4ccc5c(c4)ncn5C)c(C)c3)c2n1` [Example 31, (E)-N-methyl-N-((E)-3-(4-((3-methyl-4-((1-methyl-1H-benzo[d]imidazol-5-yl)oxy)phenyl)amino)pyrido[3,2-d]pyrimidin-6-yl)allyl)but-2-enamide], the GI50 ([1]; Mus musculus, BaF3, 72 hours) was 1000 to 5000 nM and the GI50 (Ba/F3 HER2 A775insYVMA; Mus musculus, BaF3, 72 hours) was 100 to 1000 nM.

For `C=CC(=O)N1CC(/C=C/c2ccc3ncnc(Nc4ccc(Oc5ccc6c(c5)ncn6C)c(C)c4F)c3n2)C1` [Example 46], the GI50 ([1]; Mus musculus, BaF3, 72 hours) was 1000 to 5000 nM and the GI50 (Ba/F3 HER2 A775insYVMA; Mus musculus, BaF3, 72 hours) was less than 100 nM.

`C=CC(=O)N1CCCC[C@@H]1C#Cc1ncc2ncnc(Nc3ccc(Oc4ccc5c(c4)ncn5C)c(C)c3)c2n1` [Example 91, (R)-1-(2-((8-((3-methyl-4-((1-methyl-1H-benzo[d]imidazol-5-yl)oxy)phenyl)amino)pyrimido[5,4-d]pyrimidin-2-yl)ethynyl)piperidin-1-yl)prop-2-en-1-one] gave a GI50 ([1]; Mus musculus, BaF3, 72 hours) of 100 to 1000 nM and a GI50 (Ba/F3 HER2 A775insYVMA; Mus musculus, BaF3, 72 hours) of 100 to 1000 nM.

Work on `C=CC(=O)N(C)CC#Cc1ccc2ncnc(Nc3ccc(Oc4ccn5ncnc5c4)c(C)c3)c2c1` [Example 65, N-(3-(4-((4-([1,2,4]triazolo[1,5-a]pyridin-7-yloxy)-3-methylphenyl)amino)quinazolin-6-yl)prop-2-yn-1-yl)-N-methylacrylamide] yielded a GI50 ([1]; Mus musculus, BaF3, 72 hours) of 100 to 1000 nM and a GI50 (Ba/F3 HER2 A775insYVMA; Mus musculus, BaF3, 72 hours) of less than 100 nM.

For `C=CC(=O)N(C)CCNc1ncc2ncnc(Nc3ccc(Oc4ccn5ncnc5c4)c(C)c3)c2n1` [Example 12, N-(2-((8-((4-([1,2,4]triazolo[1,5-a]pyridin-7-yloxy)-3-methylphenyl)amino)pyrimido[5,4-d]pyrimidin-2-yl)amino)ethyl)-N-methylacrylamide], the GI50 ([1]; Mus musculus, BaF3, 72 hours) was 1000 to 5000 nM and the GI50 (Ba/F3 HER2 A775insYVMA; Mus musculus, BaF3, 72 hours) was 1000 to 5000 nM.

`C=CC(=O)N1CCCC(/C=C/c2ccc3ncnc(Nc4ccc(Oc5ccc6c(c5)ncn6C)c(C)c4)c3n2)C1` (stereo not shown) [Example 27, (E)-1-(3-(2-(4-((3-methyl-4-((1-methyl-1H-benzo[d]imidazol-5-yl)oxy)phenyl)amino)pyrido[3,2-d]pyrimidin-6-yl)vinyl)piperidin-1-yl)prop-2-en-1-one] showed a GI50 ([1]; Mus musculus, BaF3, 72 hours) of 1000 to 5000 nM and a GI50 (Ba/F3 HER2 A775insYVMA; Mus musculus, BaF3, 72 hours) of 100 to 1000 nM.

In the case of `C=CC(=O)N(C)CC#Cc1cc2c(Nc3ccc(Oc4ccn5ncnc5c4)c(C)c3)ncnc2cn1` [Example 67, N-(3-(4-((4-([1,2,4]triazolo[1,5-a]pyridin-7-yloxy)-3-methylphenyl)amino)pyrido[3,4-d]pyrimidin-6-yl)prop-2-yn-1-yl)-N-methylacrylamide], the GI50 ([1]; Mus musculus, BaF3, 72 hours) was 100 to 1000 nM and the GI50 (Ba/F3 HER2 A775insYVMA; Mus musculus, BaF3, 72 hours) was 100 to 1000 nM.

`C=CC(=O)N(C)CCOc1ncc2ncnc(Nc3ccc(Oc4ccc5c(c4)ncn5C)c(C)c3)c2n1` [Example 8, N-methyl-N-(2-((8-((3-methyl-4-((1-methyl-1H-benzo[d]imidazol-5-yl)oxy)phenyl)amino)pyrimido[5,4-d]pyrimidin-2-yl)oxy)ethyl)acrylamide] showed a GI50 ([1]; Mus musculus, BaF3, 72 hours) of 1000 to 5000 nM and a GI50 (Ba/F3 HER2 A775insYVMA; Mus musculus, BaF3, 72 hours) of 100 to 1000 nM.

Compound `C=CC(=O)N(C)CC#Cc1ccc2ncnc(Nc3ccc(Oc4ccc5c(c4)ncn5C)c(C)c3)c2n1` [Example 71, N-methyl-N-(3-(4-((3-methyl-4-((1-methyl-1H-benzo[d]imidazol-5-yl)oxy)phenyl)amino)pyrido[3,2-d]pyrimidin-6-yl)prop-2-yn-1-yl)acrylamide] has a GI50 ([1]; Mus musculus, BaF3, 72 hours) of 1000 to 5000 nM and a GI50 (Ba/F3 HER2 A775insYVMA; Mus musculus, BaF3, 72 hours) of 100 to 1000 nM.

In the case of `C=CC(=O)N1CCC(/C=C/c2ccc3ncnc(Nc4ccc(Oc5ccc6c(c5)ncn6C)c(C)c4)c3n2)C1` (stereo not shown) [Example 29, (E)-1-(3-(2-(4-((3-methyl-4-((1-methyl-1H-benzo[d]imidazol-5-yl)oxy)phenyl)amino)pyrido[3,2-d]pyrimidin-6-yl)vinyl)pyrrolidin-1-yl)prop-2-en-1-one], the GI50 ([1]; Mus musculus, BaF3, 72 hours) was 1000 to 5000 nM and the GI50 (Ba/F3 HER2 A775insYVMA; Mus musculus, BaF3, 72 hours) was less than 100 nM.

With `C=CC(=O)N(C)C/C=C/c1ccc2ncnc(Nc3cc(C)c(Oc4ccc5c(c4)ncn5C)cc3OC)c2n1` [Example 54, (E)-N-(3-(4-((2-methoxy-5-methyl-4-((1-methyl-1H-benzo[d]imidazol-5-yl)oxy)phenyl)amino)pyrido[3,2-d]pyrimidin-6-yl)allyl)-N-methylacrylamide] the GI50 ([1]; Mus musculus, BaF3, 72 hours) was greater than 5000 nM and the GI50 (Ba/F3 HER2 A775insYVMA; Mus musculus, BaF3, 72 hours) was less than 100 nM.

In the case of `C=CC(=O)N(C)CC#Cc1ncc2ncnc(Nc3ccc(Oc4ccc5c(c4)ncn5C)c(C)c3)c2n1` [Example 72], the GI50 ([1]; Mus musculus, BaF3, 72 hours) was less than 100 nM and the GI50 (Ba/F3 HER2 A775insYVMA; Mus musculus, BaF3, 72 hours) was 100 to 1000 nM.

`C=CC(=O)N(C)CCOc1ccc2ncnc(Nc3ccc(Oc4ccc5c(c4)ncn5C)c(C)c3)c2n1` [Example 6, N-methyl-N-(2-((4-((3-methyl-4-((1-methyl-1H-benzo[d]imidazol-5-yl)oxy)phenyl)amino)pyrido[3,2-d]pyrimidin-6-yl)oxy)ethyl)acrylamide] gave a GI50 ([1]; Mus musculus, BaF3, 72 hours) greater than 5000 nM and a GI50 (Ba/F3 HER2 A775insYVMA; Mus musculus, BaF3, 72 hours) of less than 100 nM.

Compound `C=CC(=O)N(C)C(C)/C=C/c1ccc2ncnc(Nc3ccc(Oc4ccc5c(c4)ncn5C)c(C)c3)c2n1` (stereo not shown) [Example 50, (E)-N-methyl-N-(4-(4-((3-methyl-4-((1-methyl-1H-benzo[d]imidazol-5-yl)oxy)phenyl)amino)pyrido[3,2-d]pyrimidin-6-yl)but-3-en-2-yl)acrylamide] has a GI50 ([1]; Mus musculus, BaF3, 72 hours) of 1000 to 5000 nM and a GI50 (Ba/F3 HER2 A775insYVMA; Mus musculus, BaF3, 72 hours) of less than 100 nM.

For `C=CC(=O)N1CCC[C@@H]1C#Cc1ccc2ncnc(Nc3ccc(Oc4ccn5ncnc5c4)c(C)c3)c2n1` [Example 80, (R)-1-(2-((4-((4-([1,2,4]triazolo[1,5-a]pyridin-7-yloxy)-3-methylphenyl)amino)pyrido[3,2-d]pyrimidin-6-yl)ethynyl)pyrrolidin-1-yl)prop-2-en-1-one], the GI50 ([1]; Mus musculus, BaF3, 72 hours) was 100 to 1000 nM and the GI50 (Ba/F3 HER2 A775insYVMA; Mus musculus, BaF3, 72 hours) was less than 100 nM.

`C=CC(=O)N(C)C/C=C/c1ccc2ncnc(Nc3ccc(Oc4ccc5c(c4)ncn5C)c(F)c3)c2n1` [Example 55, (E)-N-(3-(4-((3-fluoro-4-((1-methyl-1H-benzo[d]imidazol-5-yl)oxy)phenyl)amino)pyrido[3,2-d]pyrimidin-6-yl)allyl)-N-methylacrylamide] showed a GI50 ([1]; Mus musculus, BaF3, 72 hours) greater than 5000 nM and a GI50 (Ba/F3 HER2 A775insYVMA; Mus musculus, BaF3, 72 hours) of less than 100 nM.

“N-methyl-N-(2-((8-((3-methyl-4-((1-methyl-1H-benzo[d]imidazol-5-yl)oxy)phenyl)amino)pyrimido[5,4-d]pyrimidin-2-yl)amino)ethyl)acrylamide [Example 16]” was tested, and the GI50 ([1]; 72 hours) was greater than 5000 nM and the GI50 (Ba/F3 HER2 A775insYVMA; 72 hours) was 100 to 1000 nM.

Compound `C=CC(=O)N1CCC[C@@H]1C#Cc1ncc2ncnc(Nc3ccc(OC4=CC5N=CN(C)C5C=C4)c(C)c3)c2n1` (stereo partly drawn) [Example 90, 1-((2R)-2-((8-((3-methyl-4-((1-methyl-3a,7a-dihydro-1H-benzo[d]imidazol-5-yl)oxy)phenyl)amino)pyrimido[5,4-d]pyrimidin-2-yl)ethynyl)pyrrolidin-1-yl)prop-2-en-1-one] has a GI50 ([1]; Mus musculus, BaF3, 72 hours) of less than 100 nM and a GI50 (Ba/F3 HER2 A775insYVMA; Mus musculus, BaF3, 72 hours) of less than 100 nM.

`C=CC(=O)N(C)C/C=C/c1ccc2ncnc(Nc3ccc(Oc4cnc5c(c4)ncn5C)c(C)c3)c2n1` [Example 43, (E)-N-methyl-N-(3-(4-((3-methyl-4-((3-methyl-3H-imidazo[4,5-b]pyridin-6-yl)oxy)phenyl)amino)pyrido[3,2-d]pyrimidin-6-yl)allyl)acrylamide] showed a GI50 ([1]; Mus musculus, BaF3, 72 hours) of 1000 to 5000 nM and a GI50 (Ba/F3 HER2 A775insYVMA; Mus musculus, BaF3, 72 hours) of less than 100 nM.
